Data reported in the OligoGym collection.
Oligonucleotides are written 5' to 3', each unit as a sugar letter and its base; * is a phosphorothioate linkage, no mark a phosphodiester; rarer units and linkages stand in square brackets, end groups in braces. Plain capitals give the bases only. d = 2'-deoxy (DNA); r = 2'-OH (RNA)

biological target: MRFAP1; assay: reporter assay of Huesken 2005; conditions: siRNA
Also: test concentration or dose not given here.

Row | Substance | normalised inhibition (eCFP-eYFP dual reporter) [%]
1 | sense rCrUrArUrCrUrArUrUrArUrArArCrCrUrGrCrCdTdT / antisense rGrGrCrArGrGrUrUrArUrArArUrArGrArUrArGdTdG | 90.4
2 | sense rCrUrArUrUrArUrArArCrCrUrGrCrCrUrGrArUdTdT / antisense rArUrCrArGrGrCrArGrGrUrUrArUrArArUrArGdAdT | 88
3 | sense rCrUrCrArArCrCrArCrCrUrGrCrArGrGrGrCrGdTdT / antisense rCrGrCrCrCrUrGrCrArGrGrUrGrGrUrUrGrArGdAdG | 43.2
4 | sense rCrUrCrUrGrArGrGrArGrArGrCrGrCrUrCrUrCdTdT / antisense rGrArGrArGrCrGrCrUrCrUrCrCrUrCrArGrArGdGdC | 48.8
5 | sense rCrUrGrArCrArCrUrArCrGrUrUrUrCrUrGrCrUdTdT / antisense rArGrCrArGrArArArCrGrUrArGrUrGrUrCrArGdTdG | 99.3
6 | sense rCrUrGrArGrArCrUrUrGrGrArGrUrUrGrGrArGdTdT / antisense rCrUrCrCrArArCrUrCrCrArArGrUrCrUrCrArGdTdG | 81.5
7 | sense rCrUrGrCrCrCrGrUrCrArUrCrCrArCrGrArGrAdTdT / antisense rUrCrUrCrGrUrGrGrArUrGrArCrGrGrGrCrArGdCdA | 70.8
8 | sense rCrUrGrCrUrGrCrCrCrGrUrCrArUrCrCrArCrGdTdT / antisense rCrGrUrGrGrArUrGrArCrGrGrGrCrArGrCrArGdAdA | 39.5
9 | sense rCrUrGrUrGrGrGrArGrArUrGrGrArCrArArUrAdTdT / antisense rUrArUrUrGrUrCrCrArUrCrUrCrCrCrArCrArGdCdT | 82.9
10 | sense rCrUrUrCrGrArGrCrArGrUrUrUrCrUrGrCrUrGdTdT / antisense rCrArGrCrArGrArArArCrUrGrCrUrCrGrArArGdTdC | 59.9
11 | sense rCrUrUrGrCrArArUrArCrCrCrUrUrUrGrUrGrUdTdT / antisense rArCrArCrArArArGrGrGrUrArUrUrGrCrArArGdGdA | 74.1
12 | sense rCrUrUrGrGrArGrUrUrGrGrArGrCrUrCrArCrCdTdT / antisense rGrGrUrGrArGrCrUrCrCrArArCrUrCrCrArArGdTdC | 55.2
13 | sense rCrUrUrGrUrUrCrGrUrCrUrGrUrArCrArArGrUdTdT / antisense rArCrUrUrGrUrArCrArGrArCrGrArArCrArArGdAdC | 54.3
14 | sense rGrArArArCrCrArGrArGrArGrCrCrUrUrUrGrUdTdT / antisense rArCrArArArGrGrCrUrCrUrCrUrGrGrUrUrUrCdAdG | 86
15 | sense rGrArArArGrArUrCrCrUrUrGrCrArArUrArCrCdTdT / antisense rGrGrUrArUrUrGrCrArArGrGrArUrCrUrUrUrCdAdT | 82.6
16 | sense rGrArArCrArGrCrGrGrCrGrGrArArGrUrUrUrUdTdT / antisense rArArArArCrUrUrCrCrGrCrCrGrCrUrGrUrUrCdCdA | 84.3
17 | sense rGrArArUrArArCrGrUrUrCrArUrUrCrCrUrGrGdTdT / antisense rCrCrArGrGrArArUrGrArArCrGrUrUrArUrUrCdAdC | 66.8
18 | sense rGrArCrGrCrArGrUrGrGrArGrCrUrGrGrCrGrGdTdT / antisense rCrCrGrCrCrArGrCrUrCrCrArCrUrGrCrGrUrCdCdA | 65.5
19 | sense rGrArCrUrUrCrArUrCrUrGrGrGrArCrUrGrUrGdTdT / antisense rCrArCrArGrUrCrCrCrArGrArUrGrArArGrUrCdTdG | 82.4
20 | sense rGrArGrArArGrGrArArArArCrCrUrGrCrArArUdTdT / antisense rArUrUrGrCrArGrGrUrUrUrUrCrCrUrUrCrUrCdAdG | 79.1
21 | sense rGrArGrArGrCrCrUrUrUrGrUrUrUrUrCrCrUrUdTdT / antisense rArArGrGrArArArArCrArArArGrGrCrUrCrUrCdTdG | 106
22 | sense rGrArGrArUrGrCrUrGrGrUrGrCrArGrCrUrCrGdTdT / antisense rCrGrArGrCrUrGrCrArCrCrArGrCrArUrCrUrCdGdG | 32.2
23 | sense rGrArGrCrCrGrUrCrCrGrCrGrGrUrUrUrCrCrAdTdT / antisense rUrGrGrArArArCrCrGrCrGrGrArCrGrGrCrUrCdAdC | 70.1
24 | sense rGrArGrGrArCrArUrCrGrCrGrUrCrGrCrUrGrAdTdT / antisense rUrCrArGrCrGrArCrGrCrGrArUrGrUrCrCrUrCdGdC | 77.9
25 | sense rGrArGrGrArCrUrCrCrArUrGrCrArGrCrArArUdTdT / antisense rArUrUrGrCrUrGrCrArUrGrGrArGrUrCrCrUrCdTdT | 44.8
26 | sense rGrArGrGrUrCrUrUrGrUrUrCrGrUrCrUrGrUrAdTdT / antisense rUrArCrArGrArCrGrArArCrArArGrArCrCrUrCdAdT | 72.7

Row | Substance | normalised inhibition (eCFP-eYFP dual reporter) [%]
27 | sense rGrArGrUrGrUrCrGrUrGrCrArGrArCrArArGrCdTdT / antisense rGrCrUrUrGrUrCrUrGrCrArCrGrArCrArCrUrCdAdG | 64.8
28 | sense rGrArUrCrArArGrArCrGrCrArGrGrUrArGrArGdTdT / antisense rCrUrCrUrArCrCrUrGrCrGrUrCrUrUrGrArUrCdTdG | 72
29 | sense rGrCrArArArGrCrArGrCrGrGrArGrArUrGrCrGdTdT / antisense rCrGrCrArUrCrUrCrCrGrCrUrGrCrUrUrUrGrCdTdT | 74.8
30 | sense rGrCrGrCrCrCrGrUrGrCrGrCrArArCrCrGrGrGdTdT / antisense rCrCrCrGrGrUrUrGrCrGrCrArCrGrGrGrCrGrCdGdC | 55.3
31 | sense rGrCrUrCrUrUrUrCrUrUrGrGrGrUrGrArCrCrUdTdT / antisense rArGrGrUrCrArCrCrCrArArGrArArArGrArGrCdAdA | 95.8
32 | sense rGrCrUrGrArArArCrCrArGrArGrArGrCrCrUrUdTdT / antisense rArArGrGrCrUrCrUrCrUrGrGrUrUrUrCrArGrCdTdT | 102
33 | sense rGrGrArArArArUrGrCrGrCrUrCrArCrArUrArCdTdT / antisense rGrUrArUrGrUrGrArGrCrGrCrArUrUrUrUrCrCdAdA | 86.7
34 | sense rGrGrArCrArGrCrCrUrArArCrUrCrArUrUrUrUdTdT / antisense rArArArArUrGrArGrUrUrArGrGrCrUrGrUrCrCdCdA | 62.8
35 | sense rGrGrArGrArUrGrGrCrGrArArGrArUrGrGrCrCdTdT / antisense rGrGrCrCrArUrCrUrUrCrGrCrCrArUrCrUrCrCdTdG | 72.4
36 | sense rGrGrArGrGrArUrUrGrUrArUrUrGrUrUrUrCrUdTdT / antisense rArGrArArArCrArArUrArCrArArUrCrCrUrCrCdGdA | 105
37 | sense rGrGrArGrUrUrGrGrArGrCrUrCrArCrCrGrCrCdTdT / antisense rGrGrCrGrGrUrGrArGrCrUrCrCrArArCrUrCrCdAdA | 50
38 | sense rGrGrArUrUrGrUrArUrUrGrUrUrUrCrUrArUrGdTdT / antisense rCrArUrArGrArArArCrArArUrArCrArArUrCrCdTdC | 93.3
39 | sense rGrGrCrArArGrCrUrGrUrGrGrGrArGrArUrGrGdTdT / antisense rCrCrArUrCrUrCrCrCrArCrArGrCrUrUrGrCrCdCdC | 81
40 | sense rGrGrCrCrUrUrArCrArCrGrGrCrUrArGrGrArCdTdT / antisense rGrUrCrCrUrArGrCrCrGrUrGrUrArArGrGrCrCdCdA | 60
41 | sense rGrGrGrCrGrGrCrGrCrCrGrArGrCrCrCrCrGrCdTdT / antisense rGrCrGrGrGrGrCrUrCrGrGrCrGrCrCrGrCrCrCdGdC | 74.9
42 | sense rGrGrGrUrGrArCrCrUrGrArUrArGrCrUrCrCrCdTdT / antisense rGrGrGrArGrCrUrArUrCrArGrGrUrCrArCrCrCdAdA | 87.1
43 | sense rGrGrUrArUrCrCrCrCrArUrArUrArUrUrUrGrAdTdT / antisense rUrCrArArArUrArUrArUrGrGrGrGrArUrArCrCdAdA | 76.3
44 | sense rGrGrUrCrArArArArCrCrCrUrUrArCrCrArUrGdTdT / antisense rCrArUrGrGrUrArArGrGrGrUrUrUrUrGrArCrCdTdC | 84.5
45 | sense rGrGrUrGrCrArGrCrUrCrGrUrGrCrGrGrCrGrGdTdT / antisense rCrCrGrCrCrGrCrArCrGrArGrCrUrGrCrArCrCdAdG | 88.4
46 | sense rGrUrArGrUrCrArArGrCrUrArUrArArArUrGrUdTdT / antisense rArCrArUrUrUrArUrArGrCrUrUrGrArCrUrArCdAdT | 88.3
47 | sense rGrUrCrCrCrUrGrUrGrArCrArCrUrGrArGrArCdTdT / antisense rGrUrCrUrCrArGrUrGrUrCrArCrArGrGrGrArCdCdC | 43
48 | sense rGrUrGrArGrCrCrGrUrCrCrGrCrGrGrUrUrUrCdTdT / antisense rGrArArArCrCrGrCrGrGrArCrGrGrCrUrCrArCdGdA | 72.2
49 | sense rGrUrGrGrGrArGrArUrGrGrArCrArArUrArUrGdTdT / antisense rCrArUrArUrUrGrUrCrCrArUrCrUrCrCrCrArCdAdG | 79.7
50 | sense rGrUrGrUrGrArGrArCrCrArArArGrGrArGrGrAdTdT / antisense rUrCrCrUrCrCrUrUrUrGrGrUrCrUrCrArCrArCdAdG | 98
51 | sense rGrUrGrUrGrUrUrCrCrUrGrArArUrUrUrGrArGdTdT / antisense rCrUrCrArArArUrUrCrArGrGrArArCrArCrArCdCdA | 32.7
52 | sense rGrUrUrCrCrUrGrArArUrUrUrGrArGrGrUrGrCdTdT / antisense rGrCrArCrCrUrCrArArArUrUrCrArGrGrArArCdAdC | 23.1
